Here are results for 20 molecules from ChEMBL document CHEMBL4152269, “New N-phenylpyrrolamide DNA gyrase B inhibitors: Optimization of efficacy and antibacterial activity” (Eur J Med Chem, 2018).

≈ marks a conversion by molar mass, not a printed value. Some results are limits rather than exact numbers.

Experiment [1] concerns Escherichia coli. The experiment in a line: Growth inhibition of Escherichia coli ATCC 25922 at 50 uM after 24 hrs by broth microdilution method relative to control. It counts as functional. Particulars: ATCC 25922, 24 h, read-out: GI.
The test system of experiment [2] is Enterococcus faecalis. The experiment in a line: Growth inhibition of Enterococcus faecalis ATCC 29212 at 50 uM after 24 hrs by broth microdilution method relative to control. It counts as functional. Particulars: ATCC 29212, 24 h, read-out: GI. On the technique in general: Broth dilution looks for growth in wells or tubes with falling amounts of substance.
Another experiment has as its system Pseudomonas aeruginosa. As to the kind of experiment: Growth inhibition of Pseudomonas aeruginosa ATCC 27853 at 50 uM after 24 hrs by broth microdilution method relative to control. It counts as functional. Particulars: ATCC 27853, 24 h, read-out: GI.
The test system of experiment [3] is Escherichia coli. As to the kind of experiment: Growth inhibition of lpxC deficient Escherichia coli JD17464 at 50 uM after 24 hrs by broth microdilution method relative to control. It counts as functional. Particulars: JD17464, 24 h, read-out: GI.
For experiment [4], the system named is Staphylococcus aureus. The experiment in a line: Growth inhibition of Staphylococcus aureus ATCC 25923 at 50 uM after 24 hrs by broth microdilution method relative to control. It counts as functional. Particulars: ATCC 25923, 24 h, read-out: GI.
Experiment [5] relates to Escherichia coli. The experiment in a line: Growth inhibition of tolC deficient Escherichia coli JW5503 at 50 uM after 24 hrs by broth microdilution method relative to control. It counts as functional. Particulars: JW5503, 24 h, read-out: GI.
For experiment [6], the target named is DNA gyrase subunit B (Escherichia coli, UniProt P0AES6). As to the kind of experiment: Inhibition of Escherichia coli DNA gyrase by supercoiling assay.
Experiment [7] can be described thus: Inhibition of Staphylococcus aureus topoisomerase-4 assessed as residual activity preincubated for 10 mins followed by ATP addition measured after 30 mins by purine nucleoside phosphorylase enzyme coupled spectrophotometric method.
The target in experiment [8] is DNA gyrase subunit B (Staphylococcus aureus, UniProt P0A0K8). The experiment in a line: Inhibition of Staphylococcus aureus DNA gyrase B preincubated for 10 mins followed by ATP addition measured after 30 mins by purine nucleoside phosphorylase enzyme coupled spectrophotometric method.
Sequence of DNA gyrase subunit B (Staphylococcus aureus, UniProt P0A0K8) (P0A0K8 whole entry): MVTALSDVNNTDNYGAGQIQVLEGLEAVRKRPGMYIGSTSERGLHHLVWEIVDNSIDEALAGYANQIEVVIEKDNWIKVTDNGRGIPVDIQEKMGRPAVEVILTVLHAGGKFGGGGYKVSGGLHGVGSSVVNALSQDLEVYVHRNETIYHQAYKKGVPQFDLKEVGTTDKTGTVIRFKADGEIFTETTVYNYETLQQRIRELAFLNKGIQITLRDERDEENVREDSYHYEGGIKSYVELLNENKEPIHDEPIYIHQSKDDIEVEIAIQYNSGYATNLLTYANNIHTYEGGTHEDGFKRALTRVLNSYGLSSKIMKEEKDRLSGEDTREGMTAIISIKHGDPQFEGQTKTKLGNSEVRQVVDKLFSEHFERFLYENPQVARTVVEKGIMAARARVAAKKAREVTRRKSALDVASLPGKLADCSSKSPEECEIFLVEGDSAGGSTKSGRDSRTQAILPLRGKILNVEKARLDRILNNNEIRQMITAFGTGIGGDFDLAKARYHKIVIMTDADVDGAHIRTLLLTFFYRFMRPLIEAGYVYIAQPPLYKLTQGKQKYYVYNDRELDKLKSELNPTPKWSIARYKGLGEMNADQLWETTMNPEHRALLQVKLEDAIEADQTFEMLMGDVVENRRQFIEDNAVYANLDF
Experiment [9] deals with Escherichia coli. The experiment in a line: Antibacterial activity against tolC deficient Escherichia coli JW5503 after 18 hrs by broth microdilution method. It counts as functional. Particulars: JW5503, 18 h.
The test system of experiment [10] is Enterococcus faecalis. As to the kind of experiment: Antibacterial activity against Enterococcus faecalis ATCC 29212 after 18 hrs by broth microdilution method. It counts as functional. Particulars: ATCC 29212, 18 h.
The nature of experiment [11]: Inhibition of Escherichia coli C-terminal His6-tagged topoisomerase-4 expressed in Escherichia coli BL21(DE3) preincubated for 10 mins followed by ATP addition measured after 30 mins by purine nucleoside phosphorylase enzyme coupled spectrophotometric method.
For experiment [12], the system named is Staphylococcus aureus. The experiment in a line: Inhibition of Staphylococcus aureus topoisomerase-4 assessed as residual activity at 1 uM preincubated for 10 mins followed by ATP addition measured after 30 mins by purine nucleoside phosphorylase enzyme coupled spectrophotometric method relative to control.

With `COC(=O)[C@H](C)NC(=O)c1ccc(NC(=O)c2[nH]c(C)c(Cl)c2Cl)c(OC(C)C)c1`, the inhibition of growth at 50 µM is 0% in the experiment with Escherichia coli [1]; 57% in the experiment on Enterococcus faecalis [2]; 8% with Pseudomonas aeruginosa; 6% with Escherichia coli [3]; -45% in the experiment on Staphylococcus aureus [4]; -12% in the experiment with Escherichia coli [5].
For orientation: IC50 means the concentration that gives 50% inhibition. For `Cc1[nH]c(C(=O)Nc2ccc(C(=O)NCC(=O)O)c(OC(C)C)c2)c(Cl)c1Cl`, the inhibition of growth at 50 µM was 12% with Escherichia coli [1], 75% in the experiment on Enterococcus faecalis [2], 11% with Pseudomonas aeruginosa and -9% with Staphylococcus aureus [4]. For the same molecule, the IC50 against DNA gyrase subunit B [6] was determined as 91 nM; in experiment [7], 12000 nM; against DNA gyrase subunit B [8], 140 nM.
As a reminder, the MIC90 is the lowest concentration that inhibits either 90% of growth or 90% of the strains tested, depending on the study. Lower therefore signals higher susceptibility. As to `COC(=O)[C@H](Cc1ccccc1)NC(=O)c1ccc(NC(=O)c2cc(Br)c(Br)[nH]2)c(OCCN)c1`, the inhibition of growth at 50 µM in the experiment on Escherichia coli [1] was 9%; with Enterococcus faecalis [2] it was 102%; in the experiment with Pseudomonas aeruginosa, 28%; in the experiment with Escherichia coli [3] it was 23%; in the experiment on Staphylococcus aureus [4], 103%; in the experiment with Escherichia coli [5] it was 103%. For the same molecule, the MIC90 was found to be 25 µM (≈ 15.2 µg/mL) against Escherichia coli [9] and 50 µM (≈ 30.4 µg/mL) against Enterococcus faecalis [10].
In the case of `Cc1[nH]c(C(=O)Nc2ccc(C(=O)N[C@@H](C)C(=O)O)cc2OCCN)c(Cl)c1Cl`, the inhibition of growth at 50 µM in the experiment with Escherichia coli [1] was 4%; in the experiment with Enterococcus faecalis [2], 36%; in the experiment with Pseudomonas aeruginosa, 10%; in the experiment with Escherichia coli [3], 5%; in the experiment with Staphylococcus aureus [4], 17%; in the experiment on Escherichia coli [5], -4%. For the same molecule, the 50% inhibitory concentration (IC50) stood at 530 nM in experiment [11], 28 nM against DNA gyrase subunit B [6], 3200 nM in experiment [7] and 110 nM on DNA gyrase subunit B [8].
As to `COC(=O)[C@H](Cc1ccccc1)NC(=O)c1ccc(NC(=O)c2[nH]c(C)c(Cl)c2Cl)c(OC(C)C)c1`, the inhibition of growth at 50 µM is 13% with Escherichia coli [1]; 74% with Enterococcus faecalis [2]; 6% in the experiment on Pseudomonas aeruginosa; 25% in the experiment on Escherichia coli [3]; -3% with Staphylococcus aureus [4]; -5% in the experiment on Escherichia coli [5].
In the case of `NCCOc1cc(C(=O)NCC(=O)O)ccc1NC(=O)c1cc(Br)c(Br)[nH]1`, the inhibition of growth at 50 µM in the experiment on Escherichia coli [1] was 0%; in the experiment on Enterococcus faecalis [2], 0%; in the experiment with Pseudomonas aeruginosa, 11%; in the experiment on Escherichia coli [3] it was -5%; with Staphylococcus aureus [4] it was -2%; with Escherichia coli [5], -8%.
Consider `Cc1[nH]c(C(=O)Nc2ccc(C(=O)N[C@@H](C)C(=O)NN)cc2OC(C)C)c(Cl)c1Cl`, for which the inhibition of growth at 50 µM in the experiment on Escherichia coli [1] was 7%; in the experiment on Enterococcus faecalis [2], 99%; with Pseudomonas aeruginosa, 9%; in the experiment with Escherichia coli [3], 3%; in the experiment on Staphylococcus aureus [4] it was 5%; with Escherichia coli [5], 7%. The Activity in the experiment on Staphylococcus aureus [12] came out at 92%. Besides, the IC50 on DNA gyrase subunit B [6] was 280 nM; against DNA gyrase subunit B [8], 22000 nM. The molecule further returned an MIC90 in the experiment on Enterococcus faecalis [10] of 6.25 µM (≈ 2.85 µg/mL).
For `Cc1[nH]c(C(=O)Nc2ccc(C(=O)N[C@H](C)C(=O)O)cc2OC(C)C)c(Cl)c1Cl`, the inhibition of growth at 50 µM with Escherichia coli [1] is 4%; in the experiment with Enterococcus faecalis [2] it was 101%; with Pseudomonas aeruginosa, -1%; with Escherichia coli [3] it was 5%; in the experiment on Staphylococcus aureus [4], 59%; in the experiment on Escherichia coli [5], 52%. In addition, the IC50 was found to be 7400 nM in [11], 41 nM against DNA gyrase subunit B [6], 1300 nM in [7] and 1600 nM against DNA gyrase subunit B [8]. In the experiment with Enterococcus faecalis [10], this molecule yielded an MIC90 of 6.25 µM (≈ 2.76 µg/mL).
`COC(=O)CNC(=O)c1ccc(NC(=O)c2[nH]c(C)c(Cl)c2Cl)cc1OC(C)C`: the inhibition of growth at 50 µM in the experiment with Escherichia coli [1] was 6%; in the experiment with Enterococcus faecalis [2], 44%; in the experiment on Pseudomonas aeruginosa, -5%; in the experiment with Staphylococcus aureus [4] it was -5%.
In the case of `COC(=O)[C@@H](C)NC(=O)c1ccc(NC(=O)c2[nH]c(C)c(Cl)c2Cl)c(OC(C)C)c1`, the inhibition of growth at 50 µM is 12% with Escherichia coli [1]; -41% in the experiment with Enterococcus faecalis [2]; 5% in the experiment on Pseudomonas aeruginosa; 27% in the experiment on Escherichia coli [3]; 29% in the experiment on Staphylococcus aureus [4]; 11% with Escherichia coli [5].
As for `Cc1[nH]c(C(=O)Nc2ccc(C(=O)N[C@@H](C)c3n[nH]c(=O)o3)cc2OCCNC(=O)OC(C)(C)C)c(Cl)c1Cl`, the inhibition of growth at 50 µM is -1% in the experiment on Escherichia coli [1]; 86% in the experiment on Enterococcus faecalis [2]; 31% in the experiment on Pseudomonas aeruginosa; 2% in the experiment on Escherichia coli [3]; 3% with Staphylococcus aureus [4]; -5% in the experiment on Escherichia coli [5]. The same molecule displayed an IC50 at DNA gyrase subunit B [6] of 1600 nM. The molecule further came in with an MIC90 in the experiment with Enterococcus faecalis [10] of 100 µM (≈ 58.3 µg/mL).
On to `Cc1[nH]c(C(=O)Nc2ccc(C(=O)N[C@@H](C)C(=O)O)cc2OCCNC(=O)OC(C)(C)C)c(Cl)c1Cl`, for which the inhibition of growth at 50 µM with Escherichia coli [1] was 5%; in the experiment on Enterococcus faecalis [2], -1%; in the experiment with Pseudomonas aeruginosa, 5%; in the experiment with Escherichia coli [3], 14%; in the experiment on Staphylococcus aureus [4], -11%; in the experiment on Escherichia coli [5], 11%. The Activity with Staphylococcus aureus [12] was determined as 99%. Besides, the IC50 at DNA gyrase subunit B [6] stood at 590 nM; against DNA gyrase subunit B [8], 1300 nM.
For the molecule `CN(C)CCOc1cc(NC(=O)c2cc(Br)c(Br)[nH]2)ccc1C(=O)NCC(=O)O`, the inhibition of growth at 50 µM was determined as 7% in the experiment on Escherichia coli [1], 14% in the experiment with Enterococcus faecalis [2], 4% in the experiment with Pseudomonas aeruginosa and 28% in the experiment on Staphylococcus aureus [4].
In the case of `COC(=O)[C@H](C)NC(=O)c1ccc(NC(=O)c2cc(Br)c(Br)[nH]2)c(OC(C)C)c1`, the inhibition of growth at 50 µM stood at 5% in the experiment on Escherichia coli [1]; 65% with Enterococcus faecalis [2]; 9% in the experiment on Pseudomonas aeruginosa; 11% in the experiment on Escherichia coli [3]; 42% with Staphylococcus aureus [4]; 97% in the experiment on Escherichia coli [5]. The molecule further displayed an MIC90 in the experiment with Escherichia coli [9] of 25 µM (≈ 13.3 µg/mL).
With `CC(C)(C)OC(=O)NCCOc1cc(C(=O)NCC(=O)O)ccc1NC(=O)c1cc(Br)c(Br)[nH]1`, the inhibition of growth at 50 µM with Escherichia coli [1] is 2%; with Enterococcus faecalis [2] it was 1%; in the experiment on Pseudomonas aeruginosa, 9%; in the experiment on Escherichia coli [3], -2%; in the experiment on Staphylococcus aureus [4], 7%; with Escherichia coli [5], 5%.
As to `Cc1[nH]c(C(=O)Nc2ccc(C(=O)N[C@@H](Cc3ccccc3)C(=O)O)cc2OC(C)C)c(Cl)c1Cl`, the inhibition of growth at 50 µM was -2% in the experiment with Escherichia coli [1]; 99% in the experiment with Enterococcus faecalis [2]; 4% in the experiment on Pseudomonas aeruginosa; 1% in the experiment with Escherichia coli [3]; -57% in the experiment on Staphylococcus aureus [4]; 8% in the experiment on Escherichia coli [5]. The molecule also displayed an MIC90 against Enterococcus faecalis [10] of 3.13 µM (≈ 1.62 µg/mL).
For `Cc1[nH]c(C(=O)Nc2ccc(C(=O)N[C@@H](C)c3n[nH]c(=O)o3)cc2OCCN)c(Cl)c1Cl`, the inhibition of growth at 50 µM in the experiment on Escherichia coli [1] is 1%; in the experiment with Enterococcus faecalis [2], -6%; in the experiment on Pseudomonas aeruginosa it was 16%; in the experiment on Escherichia coli [3] it was 13%; with Staphylococcus aureus [4] it was 0%; with Escherichia coli [5], 88%. The IC50 in [11] came to 570 nM; on DNA gyrase subunit B [6], 13 nM; in [7], 960 nM; at DNA gyrase subunit B [8], 1000 nM. Moreover, in the experiment on Escherichia coli [9], the MIC90 was determined as 50 µM (≈ 24.2 µg/mL).
In the case of `CC(C)Oc1cc(C(=O)N[C@H](C(=O)O)C(C)C)ccc1NC(=O)c1cc(Br)c(Br)[nH]1`, the inhibition of growth at 50 µM in the experiment with Escherichia coli [1] was -2%; in the experiment on Enterococcus faecalis [2] it was 80%; in the experiment on Pseudomonas aeruginosa, 11%; with Escherichia coli [3] it was -1%; in the experiment with Staphylococcus aureus [4] it was -13%; in the experiment with Escherichia coli [5], 18%. In addition, in the experiment on Enterococcus faecalis [10], the MIC90 is over 75 µM.
With `COC(=O)[C@@H](NC(=O)c1ccc(NC(=O)c2cc(Br)c(Br)[nH]2)c(OC(C)C)c1)C(C)C`, the inhibition of growth at 50 µM with Escherichia coli [1] is 13%; with Enterococcus faecalis [2] it was 59%; with Pseudomonas aeruginosa it was 6%; in the experiment on Escherichia coli [3], 22%; in the experiment with Staphylococcus aureus [4], 33%; in the experiment with Escherichia coli [5], -9%.
As to `Cc1[nH]c(C(=O)Nc2ccc(C(=O)N[C@@H](C)C(=O)NN)cc2OCCNC(=O)OC(C)(C)C)c(Cl)c1Cl`, the inhibition of growth at 50 µM in the experiment with Escherichia coli [1] was determined as 5%; with Enterococcus faecalis [2] it was 64%; with Pseudomonas aeruginosa, 12%; in the experiment with Escherichia coli [3] it was 19%; with Staphylococcus aureus [4], 7%; with Escherichia coli [5] it was 13%.
